Columns and labels:
Experiment in all cases: relative viability (nuclei count vs DMSO), 5 days (fraction); higher = more cells survive
Cediranib + Palbociclib = compound: COc1cc2c(Oc3ccc4[nH]c(C)cc4c3F)ncnc2cc1OCCCN1CCCC1 [Cediranib] + CC(=O)c1c(C)c2cnc(Nc3ccc(N4CCNCC4)cn3)nc2n(C2CCCC2)c1=O [Palbociclib] (partner 0.5 µM)
Procedure, shortened: (§1)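 Relative viability was taken as the ratio of nuclei in treated wells to nuclei in vehicle wells. Lung cancer cell lines in 1536-well plates received compounds by pin tool one day after seeding, either one drug alone or a fixed anchor-drug dose plus five library-drug doses (not always all listed) in √10 steps. Nuclei were counted on 4× images after 5 days of treatment, and values are medians of duplicate plates.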

Cediranib + Luminespib = compound: COc1cc2c(Oc3ccc4[nH]c(C)cc4c3F)ncnc2cc1OCCCN1CCCC1 [Cediranib] + CCNC(=O)c1noc(-c2cc(C(C)C)c(O)cc2O)c1-c1ccc(CN2CCOCC2)cc1 [Luminespib] (partner 0.01 µM)
Procedure, shortened: as §1

Decitabine + Dasatinib = compound: Nc1ncn([C@H]2C[C@H](O)[C@@H](CO)O2)c(=O)n1 [Decitabine] + Cc1nc(Nc2ncc(C(=O)Nc3c(C)cccc3Cl)s2)cc(N2CCN(CCO)CC2)n1 [Dasatinib] (partner 0.075 µM)
Procedure, shortened: as §1

[1] = compound: O=C(C[C@H]1NCCC[C@@H]1O)Cn1cnc2cc(Br)c(Cl)cc2c1=O (racemic) [Halofuginone] + Nc1nc2[nH]cc(CCc3ccc(C(=O)N[C@@H](CCC(=O)O)C(=O)O)cc3)c2c(=O)[nH]1 [Pemetrexed] (partner 0.2 µM)
Procedure, shortened: as §1

| Cell Line | relative viability (Cediranib + Palbociclib; first compound 0.04 µM) | relative viability (Cediranib + Palbociclib; first compound 0.1265 µM) | relative viability (Cediranib + Palbociclib; first compound 0.4 µM) | relative viability (Cediranib + Palbociclib; first compound 1.265 µM) | relative viability (Cediranib + Palbociclib; first compound 4 µM) | relative viability (Cediranib + Luminespib; first compound 0.04 µM) | relative viability (Cediranib + Luminespib; first compound 0.1265 µM) | relative viability (Cediranib + Luminespib; first compound 0.4 µM) | relative viability (Cediranib + Luminespib; first compound 1.265 µM) | relative viability (Cediranib + Luminespib; first compound 4 µM) | relative viability (Decitabine + Dasatinib; first compound 0.04 µM) | relative viability (Decitabine + Dasatinib; first compound 0.1265 µM) | relative viability (Decitabine + Dasatinib; first compound 0.4 µM) | relative viability (Decitabine + Dasatinib; first compound 1.265 µM) | relative viability (Decitabine + Dasatinib; first compound 4 µM) | relative viability ([1]; first compound 0.001 µM) | relative viability ([1]; first compound 0.003162 µM) | relative viability ([1]; first compound 0.01 µM) | relative viability ([1]; first compound 0.03162 µM) | relative viability ([1]; first compound 0.1 µM) |
| --- | --- | --- | --- | --- | --- | --- | --- | --- | --- | --- | --- | --- | --- | --- | --- | --- | --- | --- | --- | --- |
| NCI-H520 | 0.262 | 0.22 | 0.175 | 0.162 | 0.179 | 0.251 | 0.262 | 0.188 | 0.2 | 0.308 | 0.263 | 0.242 | 0.217 | 0.239 | 0.19 | 0.726 | 0.662 | 0.784 | 0.611 | 0.246 |
| NCI-H522 | 1.04 | 0.899 | 0.891 | 0.998 | 1.07 | 1.13 |  | 1.17 | 1.03 | 1.02 | 1.02 | 0.748 | 0.607 | 0.632 | 0.678 | 1.08 | 0.968 | 1.03 | 1.11 | 0.918 |
| NCI-H647 | 0.349 | 0.385 | 0.336 | 0.457 | 0.448 | 0.13 | 0.308 | 0.174 | 0.157 | 0.212 | 0.212 | 0.261 | 0.196 | 0.104 | 0.0939 | 0.191 | 0.171 | 0.172 | 0.155 | 0.0946 |
| NCI-H650 | 0.381 | 0.321 | 0.334 | 0.34 | 0.308 | 0.842 | 0.831 | 0.763 | 1.02 | 0.774 | 0.422 | 0.443 | 0.357 | 0.344 | 0.275 | 0.981 | 0.954 | 0.946 | 0.825 | 0.696 |
| NCI-H661 | 0.452 | 0.441 | 0.405 | 0.391 | 0.442 | 0.978 | 0.842 | 0.913 | 0.908 | 0.982 | 0.679 | 0.629 | 0.475 | 0.305 | 0.347 | 0.927 | 0.896 | 0.868 | 0.768 | 0.642 |
| NCI-H838 | 0.229 | 0.228 | 0.218 | 0.181 | 0.214 | 0.328 | 0.289 | 0.276 | 0.314 | 0.272 | 0.326 | 0.325 | 0.241 | 0.273 | 0.242 | 0.266 | 0.256 | 0.249 | 0.189 | 0.128 |
| NCI-H1355 | 0.413 | 0.426 | 0.367 | 0.39 | 0.423 | 0.739 | 0.871 | 0.686 | 0.813 | 0.719 | 0.61 | 0.6 | 0.369 | 0.276 | 0.296 | 1.07 | 1 | 1.02 | 1.03 | 0.919 |
| NCI-H1395 | 0.622 | 0.615 | 0.629 | 0.623 | 0.535 | 0.787 | 0.569 | 0.734 | 0.754 | 0.535 | 0.409 | 0.416 | 0.428 | 0.413 | 0.417 | 0.873 | 0.822 | 0.991 | 0.696 | 0.571 |
| NCI-H1437 | 0.32 | 0.305 | 0.291 | 0.349 | 0.335 | 1.15 | 1.05 | 1.04 | 1.1 | 1.13 | 0.357 | 0.376 | 0.256 | 0.167 | 0.169 | 0.318 | 0.337 | 0.329 | 0.307 | 0.254 |
| NCI-H1650 | 0.421 | 0.328 | 0.304 | 0.404 | 0.334 | 0.192 | 0.161 | 0.179 | 0.197 | 0.173 | 0.328 | 0.314 | 0.247 | 0.26 | 0.248 | 0.339 | 0.388 | 0.375 | 0.325 | 0.284 |
| NCI-H1651 | 0.534 | 0.551 | 0.499 | 0.523 | 0.527 | 0.763 | 0.751 | 0.786 | 0.861 | 0.892 | 0.418 | 0.506 | 0.398 | 0.341 | 0.385 | 0.56 | 0.489 | 0.568 | 0.572 | 0.592 |
| NCI-H1666 | 0.681 | 0.61 | 0.636 | 0.644 | 0.658 | 1.05 | 1.04 | 1.05 | 0.981 | 1.07 | 0.773 | 0.735 | 0.684 | 0.636 | 0.617 | 0.883 | 0.78 | 0.904 | 0.878 | 0.806 |
| NCI-H1734 | 0.322 | 0.348 | 0.383 | 0.356 | 0.305 | 0.238 | 0.185 | 0.208 | 0.208 | 0.176 | 0.433 | 0.378 | 0.423 | 0.298 | 0.219 | 0.408 | 0.438 | 0.401 | 0.441 | 0.488 |
| NCI-H1755 | 0.441 | 0.429 | 0.436 | 0.441 | 0.422 | 0.556 | 0.419 | 0.403 | 0.232 | 0.467 | 0.47 | 0.467 | 0.422 | 0.365 | 0.306 | 0.418 | 0.469 | 0.413 | 0.423 | 0.484 |
| NCI-H1792 | 0.599 | 0.607 | 0.584 | 0.739 | 0.682 | 0.429 | 0.644 | 0.479 | 0.538 | 0.508 | 0.835 | 0.86 | 0.861 | 0.677 | 0.558 | 0.922 | 0.813 | 0.53 | 0.891 | 0.391 |
| NCI-H1793 | 0.306 | 0.277 | 0.3 | 0.271 | 0.311 | 0.182 | 0.176 | 0.224 |  | 0.201 | 0.347 | 0.394 | 0.382 | 0.246 | 0.239 | 0.906 | 0.734 | 0.7 | 0.843 | 0.515 |

Source: the supplement of paper PMC10307832
